PMC7823860, “Flavonoid Glycosides with a Triazole Moiety for Marine Antifouling Applications: Synthesis and Biological Activity Evaluation” (Marine Drugs, 2020)
Several values for one entry are separate records, joined by “and”; a condition that tells them apart may be missing. Equal entries are not always repeated. Where two headings read alike, the source gives them in different places.

Legend:
Agaricus bisporus Tyr = assay: In vitro tyrosinase (Tyr) inhibition assay (L-Dopa to dopachrome); format: biochemical
Protocol: (§1) The ability of the most promising compounds to inhibit AChE and Tyr was tested to assess their potential mode of action related with neurotransmission disruption or impairment of adhesive metabolism pathways, respectively.
Tyr inhibition assay was performed using Agaricus bisporus Tyr (EC1.14.18.1) according to Adhikari et al. (2008) with some modifications. The enzymatic reaction follows the catalytic conversion of L-Dopa to dopaquinone and the formation of dopachrome by measuring the absorbance at 475 nm. Briefly, Tyr (25 U/mL) was added to 50 mM phosphate buffer pH 6.5 and the tested compounds at 25, 50 and 100 μM (final concentrations, 1% DMSO). The enzymatic activity was triggered by the addition of L-dopa (25 mM). Kojic acid (1.4 mM, water) was included as positive control and 1% DMSO in water as negative control.

[1] = test system: Mytilus galloprovincialis plantigrade larvae; assay: Mussel (Mytilus galloprovincialis) larvae anti-settlement bioassay; format: in vivo; details: 15 h, 15 h exposure, read-out: EC50 (minimum concentration that inhibited 50% of larval settlement)
Protocol: (§2) Mussel (Mytilus galloprovincialis) plantigrades were collected in juvenile aggregates during low neap tides at Memória beach, Matosinhos, Portugal (41°13′59″ N; 8°43′28″ W). In laboratory, mussel plantigrade larvae (0.5–2 mm) were isolated in a binocular magnifier (Olympus SZX2-ILLT, Tokyo, Japan) to a petri dish with filtered seawater, and those with functional foot and competent exploring behaviour were selected for the bioassays. The flavonoids were screened at 50 µM in 24-well microplates with 4 well replicates per condition and 5 larvae per well, for 15 h, in the darkness at 18 ± 1 °C, following Almeida et al. (2015). Test solutions were obtained by dilution of the compounds stock solutions (50 mM) in DMSO and prepared with filtered seawater. All bioassays included a negative control with DMSO and a positive control with CuSO4, a potent AF agent. After the exposure period, the anti-settlement activity was determined by the presence/absence of attached byssal threads produced by each individual larvae.
(§3) All compounds that caused more than 60% of settlement inhibition (≤40% of settlement) in the screening bioassay were considered active and selected for the determination of the semi-maximum response concentration that inhibited 50% of larval settlement (EC50), at compounds concentrations of 3.12, 6.25, 12.5, 25, 50, 100, 200 μM.
(§4) Datasets from anti-settlement, antibacterial and anti-microalgal bioassay, and determination of AChE and Tyr activities, were analysed by one-way analysis of variance (ANOVA) followed by a multi-comparisons Dunnett’s test against negative control (p < 0.05). For the AF bioassays, the half maximum response concentration (EC50) values for each compound, when applicable, were calculated using Probit regression analysis. Significance was considered at p < 0.01, and 95% lower and upper confidence limits (95%LCL; UCL). The software IBM SPSS Statistics 26 (Armonk, New York, USA) was used for statistical analysis.

[2] = as above; format: in vivo; details: in vivo, mussel plantigrade larvae, read-out: LC50 (median lethal dose)
Protocol: as §2, §3, §4

Artemia salina nauplii [3] = assay: Artemia salina nauplii lethality (ecotoxicity) bioassay; format: in vivo; details: 25 and 50 μM, 48 h of exposure
Protocol: The brine shrimp (Artemia salina) nauplii lethality test was used to determine the toxicity of promising AF compounds to non-target organisms. Artemia salina eggs were allowed to hatch in seawater for 48 h at 25 °C. Bioassays were performed in 96-wells microplates with 15–20 nauplii per well and 200 μL of the compounds test solution. Compounds were tested at final concentrations of 25 and 50 μM (filtered seawater with 1% DMSO). All tests included K2Cr2O7 (13.6 μM) as positive control and DMSO (1%) as negative control. Bioassays were run in the dark at 25 °C, and the percentage of mortality was determined after 48 h of exposure.

[4] = test system: Roseobacter litoralis CECT 5395; assay: Biofilm-forming marine bacteria growth inhibition; format: cell-based; details: 15 µM, 24 h, Dunnett test p < 0.05
Protocol: For anti-bacterial screening, five strains of marine biofilm-forming bacteria from the Spanish Type Culture Collection (CECT): Cobetia marina CECT 4278, Vibrio harveyi CECT 525, Halomonas aquamarina CECT 5000, Pseudoalteromonas atlantica CECT 570, and Roseobacter litoralis CECT 5395 were used. Bacteria were inoculated and incubated for 24 h at 26 °C in marine broth (Difco) at an initial density of 0.1 (OD600) in 96 well flat-bottom microtiter plates and exposed to the test compounds at 15 μM. Test solutions were obtained by dilution of the compounds stock solutions (50 mM) in DMSO. Bacterial growth inhibition in the presence of the compounds was determined in quadruplicate at 600 nm using a microplate reader (Biotek Synergy HT, Vermont, USA). Negative and positive controls used were a solution of marine broth with DMSO, and a solution of marine broth with penicillin–streptomycin–neomycin, respectively. […]
as §4, with “Significance was considered at p < 0.01, and 95% lower and upper confidence limits (95%LCL; UCL). The software IBM SPSS Statistics 26 (Armonk, New York, USA) was used for statistical analysis.” left out

[5] = target: T1, Electrophorus electric AChE Type V-S (Electrophorus electricus, UniProt O42275); assay: In vitro acetylcholinesterase (AChE) activity (Ellman); format: biochemical; details: 25, 50 and 100 μM; versus negative control, p < 0.05
T1 construct: purchased SIGMA C2888
T1 sequence (O42275 24-633): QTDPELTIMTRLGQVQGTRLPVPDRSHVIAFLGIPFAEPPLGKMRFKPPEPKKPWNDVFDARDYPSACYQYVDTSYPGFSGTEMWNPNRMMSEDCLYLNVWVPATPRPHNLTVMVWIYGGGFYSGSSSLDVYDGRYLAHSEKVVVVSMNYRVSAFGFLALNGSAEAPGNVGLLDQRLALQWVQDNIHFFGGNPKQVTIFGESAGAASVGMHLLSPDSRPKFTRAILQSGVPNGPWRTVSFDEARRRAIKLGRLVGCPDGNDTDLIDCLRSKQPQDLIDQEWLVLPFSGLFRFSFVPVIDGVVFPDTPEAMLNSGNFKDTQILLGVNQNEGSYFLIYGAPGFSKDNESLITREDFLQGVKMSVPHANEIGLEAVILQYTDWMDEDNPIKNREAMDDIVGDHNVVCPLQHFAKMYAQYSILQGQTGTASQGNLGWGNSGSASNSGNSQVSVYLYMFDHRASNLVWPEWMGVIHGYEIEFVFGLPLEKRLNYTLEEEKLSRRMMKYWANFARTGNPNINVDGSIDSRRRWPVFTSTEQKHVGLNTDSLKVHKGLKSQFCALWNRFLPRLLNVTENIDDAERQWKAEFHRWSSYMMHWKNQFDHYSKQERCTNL
Protocol: as §1
AChE activity was evaluated using Electrophorus electric AChE Type V-S (SIGMA C2888, E.C. 3.1.1.7), according to Ellman et al. (1961) with some modifications. Reaction solution containing 1 M phosphate buffer pH 7.2, 10 mM dithiobisnitrobenzoate (DTNB) (acid dithiobisnitrobenzoate and sodium hydrogen carbonate in phosphate buffer) and 0.075 M […] was added to pure AChE enzyme (0.25 U/mL) and each test compound (final concentration of 25, 50 and 100 μM, 1% DMSO) in quadruplicate. All tests included a positive control with eserine (200 μM, water) and a negative control with 1% DMSO in water. The optical density was measured at 412 nm in a microplate reader (Biotek Synergy HT, Winooski, Vermont, USA) during 5 min at 25 °C.

Navicula sp. = assay: Biofilm-forming marine diatom growth inhibition; format: cell-based; details: 10 days
Protocol: The anti-microalgal activity of the most promising compounds was also evaluated against a benthic marine diatom, Navicula sp., purchased from the (Telde, Gran Canaria) Spanish Collection of Algae (BEA). Diatom cells were inoculated in f/2 medium (Sigma) at an initial concentration of 2–4 × 10^6 cells mL^−1 and grown in 96-well flat-bottom microtiter plates for 10 days at 20 °C. Navicula growth inhibition in the presence of each compound at 15 μM was determined in quadruplicate and quantified based on the difference in cell densities among the treatments, and cells were counted using a Neubauer counting chamber. A positive control with cycloheximide (3.55 μM) and a negative control with f/2 medium 0.1% DMSO were included.
as §4

Artemia salina nauplii [6] = test system: Artemia salina nauplii; parameters: method as in PMID 29936172; details: same concentrations (25 and 50 μM) and conditions; cited from earlier work

| Structure (SMILES) | EC50 ([1]; 95% CI in cell) | LC50 at 15 h [2] | EC50 [1] | other results |
| --- | --- | --- | --- | --- |
| COCOc1ccc(C(=O)/C=C/c2cc(OC)c(OC)c(OC)c2)c(O)c1 |  |  |  | melting point: 132 to 134 °C |
| COc1ccc(-c2cc(=O)c3c(O)cc(OCc4cn([C@@H]5O[C@H](COC(C)=O)[C@@H](OC(C)=O)[C@H](OC(C)=O)[C@H]5OC(C)=O)nn4)cc3o2)cc1OC |  |  |  | melting point: 143 to 145 °C |
| COc1cc(-c2cc(=O)c3c(O)cc(OCc4cn([C@@H]5O[C@H](COC(C)=O)[C@@H](OC(C)=O)[C@H](OC(C)=O)[C@H]5OC(C)=O)nn4)cc3o2)cc(OC)c1OC |  |  |  | melting point: 169 to 171 °C |
| COc1cc(-c2cc(=O)c3c(O)cc(O)cc3o2)cc(OC)c1OC [1b] | 8.34 µM | > 200 µM |  | inhibition of Tyr (Agaricus bisporus Tyr; 100 µM): 23.5%; Tyr activity (Agaricus bisporus Tyr; all the concentrations tested (25, 50 and 100 μM), versus negative control): significantly decrease Tyr activity; mortality of Artemia salina nauplii (Artemia salina nauplii [3]): less than 10% |
| COc1ccc(-c2cc(=O)c3c(O)cc(OCc4cn(CCO[C@@H]5O[C@H](COC(C)=O)[C@@H](OC(C)=O)[C@H](OC(C)=O)[C@H]5OC(C)=O)nn4)cc3o2)cc1OC [4a, (2R,3R,4S,5R,6R)-2-(acetoxymethyl)-6-(2-(4-(((2-(3,4-dimethoxyphenyl)-5-hydroxy-4-oxo-4H-chromen-7-yl)oxy)methyl)-1H-1,2,3-triazol-1-yl)ethoxy)tetrahydro-2H-pyran-3,4,5-triyl triacetate] | 42.6 µM | > 200 µM | 32.8 µg/mL |  |
| COc1cc(-c2cc(=O)c3c(O)cc(OCc4cn(CCO[C@@H]5O[C@H](COC(C)=O)[C@@H](OC(C)=O)[C@H](OC(C)=O)[C@H]5OC(C)=O)nn4)cc3o2)cc(OC)c1OC [4b, (2R,3R,4S,5R,6R)-2-(acetoxymethyl)-6-(2-(4-(((5-hydroxy-4-oxo-2-(3,4,5-trimethoxyphenyl)-4H-chromen-7-yl)oxy)methyl)-1H-1,2,3-triazol-1-yl)ethoxy)tetrahydro-2H-pyran-3,4,5-triyl triacetate] | 48.2 µM | > 200 µM | 38.6 µg/mL |  |
| C#CCOc1ccc(C(=O)/C=C/c2ccc(OC)c(OC)c2)c(O)c1 [6a] | 84.5 µM | > 200 µM | 28.6 µg/mL | bacterial growth inhibition screening [4]: significant inhibitory activity |
| C#CCOc1ccc(C(=O)/C=C/c2cc(OC)c(OC)c(OC)c2)c(O)c1 [6b] | 85.6 µM | > 200 µM | 31.5 µg/mL | bacterial growth inhibition screening [4]: significant inhibitory activity |
| COc1cc(/C=C/C(=O)c2ccc(OCc3cn([C@@H]4O[C@H](COC(C)=O)[C@@H](OC(C)=O)[C@H](OC(C)=O)[C@H]4OC(C)=O)nn3)cc2O)cc(OC)c1OC [7b, (2R,3R,4S,5R,6R)-2-(acetoxymethyl)-6-(4-((3-hydroxy-4-((E)-3-(3,4,5-trimethoxyphenyl)acryloyl)phenoxy)methyl)-1H-1,2,3-triazol-1-yl)tetrahydro-2H-pyran-3,4,5-triyl triacetate] | 3.28 µM | > 200 µM |  | AChE activity [5]: significantly induced; mortality of Artemia salina nauplii (Artemia salina nauplii [3]): less than 10%; diatom growth inhibition screening (Navicula sp.; 15 μM, Dunnett test p < 0.05): significant inhibitory activity; EC50 (Navicula sp.; 240 h): 41.8 µM and 30.9 µg/mL |
| COc1ccc(/C=C/C(=O)c2ccc(OCc3cn(CCO[C@@H]4O[C@H](COC(C)=O)[C@@H](OC(C)=O)[C@H](OC(C)=O)[C@H]4OC(C)=O)nn3)cc2O)cc1OC [8a, (2R,3R,4S,5R,6R)-2-(acetoxymethyl)-6-(2-(4-((4-((E)-3-(3,4-dimethoxyphenyl)acryloyl)-3-hydroxyphenoxy)methyl)-1H-1,2,3-triazol-1-yl)ethoxy)tetrahydro-2H-pyran-3,4,5-triyl triacetate] | 35.8 µM | > 200 µM | 27.1 µg/mL |  |
| COc1cc(/C=C/C(=O)c2ccc(OCc3cn(CCO[C@H]4O[C@H](COC(C)=O)[C@@H](OC(C)=O)[C@H](OC(C)=O)[C@@H]4OC(C)=O)nn3)cc2O)cc(OC)c1OC [8b, (2R,3R,4S,5S,6S)-2-(acetoxymethyl)-6-(2-(4-((3-hydroxy-4-((E)-3-(3,4,5-trimethoxyphenyl)acryloyl)phenoxy)methyl)-1H-1,2,3-triazol-1-yl)ethoxy)tetrahydro-2H-pyran-3,4,5-triyl triacetate] | 53.9 µM | > 200 µM | 42.4 µg/mL |  |
| COc1ccc(/C=C/C(=O)c2ccc(O)cc2O)cc1OC [11a] | 18.1 µM | > 200 µM |  | mortality of Artemia salina nauplii (Artemia salina nauplii [3]): less than 10% |
| COc1cc(/C=C/C(=O)c2ccc(O)cc2O)cc(OC)c1OC [11b] | 9.64 µM | > 200 µM |  | AChE activity [5]: significantly induced; mortality of Artemia salina nauplii (Artemia salina nauplii [3]): less than 10% |
| N#Cc1c(-c2ccc(Cl)cc2)[nH]c(C(F)(F)F)c1Br [ECONEA] |  |  |  | lethality to Artemia salina (Artemia salina nauplii [6]): 100% |
